Among the data in patent publication US8946266B2, “Substituted triazole and imidazole derivatives as gamma secretase modulators” (Janssen Pharmaceuticals, Inc., priority 2009, dated 2015) are IC50 values, retold here.

As a reminder, the pIC50 is the negative decadic logarithm of the IC50, by convention in mol/L.

pIC50: −log10 of the molar value. Read-outs that look alike come from different tables or passages of the source. Some results are limits rather than exact numbers.

Assay [1] relates to Aβtotal. Description: γ-secretase-modulating activity, Method 2: Aβtotal Alphalisa in supernatant of SKNBE2 cells carrying APP 695-wild type (Table 3b). Type of assay: cell-based. The settings on record: overnight, read-out: IC50 Aβtot. The protocol: (§1) Screening was carried out using SKNBE2 cells carrying the APP 695-wild type, grown in Dulbecco's Modified Eagle's Medium/Nutrient mixture F-12 (DMEM/NUT-mix F-12) (HAM) provided by Invitrogen (cat no. 10371-029) containing 5% Serum/Fe supplemented with 1% non-essential amino acids, 1-glutamine 2 mM, Hepes 15 mM, penicillin 50 U/ml (units/ml) en streptomycin 50 μg/ml. Cells were grown to near confluency.
(§2) The screening was performed using a modification of the assay as described in Citron et al (1997) Nature Medicine 3: 67. Briefly, cells were plated in a 384-well plate at 10^4 cells/well in Ultraculture (Lonza, BE12-725F) supplemented with 1% glutamine (Invitrogen, 25030-024), 1% non-essential amino acid (NEAA), penicillin 50 U/ml en streptomycin 50 μg/ml in the presence of test compound at different test concentrations. The cell/compound mixture was incubated overnight at 37° C., 5% CO2. The next day the media were assayed by two sandwich immuno-assays, for Aβ42 and Aβtotal.
(§3) Aβtotal and Aβ42 concentrations were quantified in the cell supernatant using the Aphalisa technology (Perkin Elmer). Alphalisa is a sandwich assay using biotinylated antibody attached to streptavidin coated donorbeads and antibody conjugated to acceptor beads. In the presence of antigen, the beads come into close proximity. The excitation of the donor beads provokes the release of singlet oxygen molecules that trigger a cascade of energy transfer in the acceptor beads, resulting in light emission. To quantify the amount of Aβ42 in the cell supernatant, monoclonal antibody specific to the C-terminus of Aβ42 (JRF/cAβ42/26) was coupled to the receptor beads and biotinylated antibody specific to the N-terminus of Aβ (JRF/AβN/25) was used to react with the donor beads. To quantify the amount of Aβ total in the cell supernatant, monoclonal antibody specific to the N-terminus of Aβ (JRF/AβN/25) was coupled to the receptor beads and biotinylated antibody specific to the mid region of Aβ (biotinylated 4G8) was used to react with the donor beads.
(§4) The sigmoidal dose response curves were analyzed using non-linear regression analysis with percentage of the control plotted against the log concentration of the compound. A 4-parameter equation was used to determine the IC50.
(§5) The IC50 values are shown in Table 3b (Aβtot means Aβtotal).
(Alpha assays give light when donor and acceptor beads are brought close together.)

Assay [2] concerns Aβ42. Description: γ-secretase-modulating activity, Method 2: Aβ42 Alphalisa in supernatant of SKNBE2 cells carrying APP 695-wild type (Table 3b). Type of assay: cell-based. Particulars: overnight. The protocol: as §1, §2, §3
To obtain the values reported in Table 3b, the data were calculated as percentage of the maximum amount of amyloid Beta 42 measured in the absence of the test compound.
as §4, §5

Consider `COc1cc(-c2nc3c(-c4cccc(C(F)(F)F)c4)nccn3n2)ccc1-n1cnc(C)c1` [Compound 293], for which the pIC50 in assay [1] was less than 5.00; in assay [2], 5.63.
For `COc1cc(-c2nc(Nc3cccc(C(F)(F)F)c3)n(C)n2)ccc1-n1cnc(C)n1` [Compound 273] the same measures were 5.00 and 6.81.
For `COc1cc(-c2nc(-c3cccc(C(F)(F)F)c3)nn2C)ccc1-n1cnc(C)c1` [Compound 8] the same measures were less than 5.00 and 5.37.
For `COc1cc(-c2nc(-c3ccc(F)cc3)n(C)n2)ccc1-n1cnc(C)c1` [Compound 40], in that order: less than 5.00 and 6.45.
As for `COc1cc(-c2nc3n(n2)CCCC3c2ccccc2OC(F)(F)F)ccc1-n1cnc(C)c1` (stereo not drawn) [Compound 266], the pIC50 in assay [1] was less than 5.52; in assay [2], 7.13.
For `COc1nc(-c2nc(C)n(C(C)c3ccc(F)cc3)n2)ccc1-n1cnc(C)c1` (racemic) [Compound 69], in that order: less than 5.00 and 5.90.
For `COc1cc(-c2nc(Nc3cccc(C(F)(F)F)c3Cl)n(C)n2)ccc1-n1cnc(C)c1` [Compound 163] the same measures were less than 5.00 and 7.21.
For `COCCn1nc(-c2ccc(-n3cnc(C)c3)c(OC)c2)nc1-c1ccccc1Cl` [Compound 87] the same measures were less than 5.00 and 6.12.
Regarding `COc1ccccc1Nc1nc(-c2ccc(-n3cnc(C)c3)c(OC)c2)nn1C` [Compound 187], the pIC50 in assay [1] is less than 5.00; in assay [2], 6.75.
For `COc1cc(-c2nc(N3CC(C)OC(C)C3)n(C)n2)ccc1-n1cnc(C)c1` (stereo not drawn) [Compound 35], in that order: less than 5.00 and 6.11.
For `COc1cc(-c2nc(Oc3ccccc3Cl)n(C(C)C)n2)ccc1-n1cnc(C)c1` [Compound 247], in that order: 5.09 and 6.44.
For `COc1cc(-c2nc(-c3ccccc3Cl)nn2C)ccc1-n1cnc(C)c1` [Compound 23], in that order: less than 5.00 and 5.30.
Regarding `COc1cc(-c2nc(NCc3ccccc3)n(C)n2)ccc1-n1cnc(C)c1` [Compound 245], the figures for the pIC50 in assay [1] and in assay [2] were less than 5.00 and 6.19, respectively.
For `COc1ccc(C(F)(F)F)cc1Nc1nc(-c2ccc(-n3cnc(C)c3)c(OC)n2)nn1C` [Compound 201] the same measures were less than 4.82 and 7.82.
For `COc1cc(-c2nc(Nc3cccc(Cl)c3F)n(C)n2)ccc1-n1cnc(C)c1` [Compound 118], in that order: less than 5.00 and 7.05.
In the case of `CNc1nc(-c2ccc(-n3cnc(C)c3)c(OC)n2)nn1-c1cccc(C(F)(F)F)c1` [Compound 92], the pIC50 in assay [1] was less than 5.00; in assay [2], 6.03.
For `COc1cc(-c2nc(Nc3c(C)cccc3F)n(C)n2)ccc1-n1cnc(C)c1` [Compound 323] the same measures were less than 5.00 and 7.29.
Consider `COc1cc(-c2n[nH]c(-c3cccc(C(F)(F)F)c3)n2)ccc1-n1cnc(C)c1` [Compound 6], for which the pIC50 in assay [1] (Homo sapiens) was less than 5.00; in assay [2] (Homo sapiens), 6.51.
For `COc1nc(-c2nc3n(n2)CCC[C@@H]3c2cc(C(F)(F)F)ccc2C)ccc1-n1cnc(C)c1` [Compound 342], the results for the pIC50 in assay [1] and in assay [2] were less than 5.00 and 6.79, respectively.
For `COc1cc(-c2nc(Nc3ccc(F)cc3C(F)(F)F)nn2C)ccc1-n1cnc(C)c1` [Compound 16] the same measures were less than 5.00 and 6.51.
`COc1cc(-c2nc(Nc3cc(F)c(F)c(F)c3)n(C)n2)ccc1-n1cnc(C)c1` [Compound 48]: the pIC50 in assay [1] was 5.16; in assay [2], 6.61.
For `COc1cc(F)c(C(F)(F)F)cc1Nc1nc(-c2ccc(-n3cnc(C)c3)c(OC)c2)nn1C` [Compound 220] the same measures were less than 5.00 and 7.20.
For `COc1cc(-c2nc(-c3cc(C(F)(F)F)ccc3C)n(C(C)C)n2)ccc1-n1cnc(C)c1` [Compound 73] the same measures were 5.02 and 6.70.
For `COc1cc(-c2nc3n(n2)CCC[C@H]3c2ccc(F)cc2C)ccc1-n1cnc(C)c1` [Compound 333], the pIC50 is less than 5.00 in assay [1] and 7.59 in assay [2].
For `COc1cccc(Nc2nc(-c3ccc(-n4cnc(C)c4)c(OC)c3)nn2C)c1` [Compound 186] the same measures were less than 5.00 and 7.11.
As for `COc1cc(-c2nc(N3CCOc4ccccc43)n(C)n2)ccc1-n1cnc(C)c1` [Compound 325], the pIC50 in assay [1] was less than 5.00; in assay [2], 6.74.
For `COc1cc(-c2nc(C(=O)Nc3cccc(C(F)(F)F)c3)n(C)n2)ccc1-n1cnc(C)c1` [Compound 329] the same measures were 6.07 and 5.51.
For `COc1cc(-c2nc(N3CCCN(C(C)=O)CC3)n(C(C)C)n2)ccc1-n1cnc(C)c1` [Compound 301] the same measures were less than 5.00 and less than 5.00.
For `COc1cc(-c2nc(NC3CCCCC3)n(C)n2)ccc1-n1cnc(C)c1` [Compound 94] the same measures were less than 5.00 and 6.06.
For the molecule `COc1cc(-c2nc(NC3CCCC(C(F)(F)F)C3)n(C)n2)ccc1-n1cnc(C)c1` (stereo not drawn) [Compound 96], the pIC50 in assay [1] was less than 5.00; in assay [2] it was 6.47.
For `COc1cc(-c2nc3n(n2)CCC[C@@H]3c2ccc(F)cc2C)ccc1-n1cnc(C)c1` [Compound 314] the same measures were less than 5.00 and 6.54.
For `COc1cc(-c2nc3n(n2)CCCC3c2ccccc2C)ccc1-n1cnc(C)c1` (stereo not drawn) [Compound 344] the same measures were less than 5.00 and 7.28.
As for `COc1cc(-c2nc(Nc3cc(C(F)(F)F)cc(Cl)c3F)n(C)n2)ccc1-n1cnc(C)c1` [Compound 210], the negative logarithm of the IC50 (pIC50) in assay [1] was less than 5.00; in assay [2] it was 7.46.
As to `COc1cc(-c2nc(-c3ccccc3Cl)n(CC3CC3)n2)ccc1-n1cnc(C)c1` [Compound 85], the pIC50 in assay [1] was less than 5.00; in assay [2], 6.51.
For `COc1cc(-c2nc3n(n2)CCCc2ccccc2-3)ccc1-n1cnc(C)c1` [Compound 17], the pIC50 was less than 5.00 in assay [1] (Homo sapiens) and 6.39 in assay [2] (Homo sapiens).
For `COc1cc(-c2nc(C(C)(O)c3cccc(C(F)(F)F)c3)n(C(C)C)n2)ccc1-n1cnc(C)c1` (stereo not drawn) [Compound 89] the same measures were 5.10 and 6.30.
As for `COc1cc(-c2nc(Nc3cc(C(=O)N(C)C)ccc3F)n(C)n2)ccc1-n1cnc(C)c1` [Compound 308], the figures for the pIC50 in assay [1] and in assay [2] were less than 5.00 and 5.77, respectively.
Consider `COc1cc(-c2nc3n(n2)CCOC3c2cccc(F)c2C)ccc1-n1cnc(C)c1` (stereo not drawn) [Compound 345], for which the pIC50 was less than 5.00 in assay [1] and 6.97 in assay [2].
For `COc1cc(-c2nc3c(-c4ccccc4)nccn3n2)ccc1-n1cnc(C)c1` [Compound 292] the same measures were less than 5.00 and 5.63.
For `COc1nc(-c2nc3n(n2)CCOC3c2ccccc2OC(F)(F)F)ccc1-n1cnc(C)c1` (stereo not drawn) [Compound 348] the same measures were less than 5.00 and 7.10.
Take `COc1cc(-c2nc(Nc3cc(F)cc(C(F)(F)F)c3)n(C)n2)ccc1-n1cnc(C)c1` [Compound 159]: the pIC50 in assay [1] was less than 5.00; in assay [2] it was 7.68.
For `COc1cc(-c2nc(Nc3ccccc3C(C)=O)n(C)n2)ccc1-n1cnc(C)c1` [Compound 324], in that order: less than 5.00 and 5.88.
For `COc1cc(-c2ncn(-c3ccccc3C(F)(F)F)n2)ccc1-n1cnc(C)c1` [Compound 63], in that order: less than 5.00 and 5.87.
Regarding `COc1cc(-c2nc3n(n2)CCN(C(C)=O)C3c2ccccc2C(F)(F)F)ccc1-n1cnc(C)c1` (stereo not drawn) [Compound 276], the pIC50 was less than 5.00 in assay [1] (Homo sapiens) and 6.08 in assay [2] (Homo sapiens).
With `COc1ccc(F)c(Nc2nc(-c3ccc(-n4cnc(C)c4)c(OC)c3)nn2C)c1` [Compound 195], the pIC50 is less than 5.00 in assay [1] and 7.02 in assay [2].
For `COc1ccc(Nc2nc(-c3ccc(-n4cnc(C)c4)c(OC)c3)nn2C)c(F)c1` [Compound 197] the same measures were less than 5.00 and 6.87.
For `COc1cc(-c2nc3c(-c4cccc(OC(F)(F)F)c4)cccn3n2)ccc1-n1cnc(C)c1` [Compound 287] the same measures were less than 5.00 and 6.45.
For `COc1cc(-c2nc3n(n2)CCOC3c2ccc(F)cc2C)ccc1-n1cnc(C)c1` (stereo not drawn) [Compound 166] the same measures were less than 5.00 and 7.19.
